Source: PubChem BioAssay AID248 (DTP/NCI, 2004)
Several values for one entry are separate records, joined by “and”; a condition that tells them apart may be missing. Equal entries are not always repeated. Toxic doses and inconclusive results are not listed.

Test system: L1210 leukemia ip in BDF1 mice, survival T/C
Test: NCI In Vivo Anticancer Drug Screen. Data for tumor model L1210 Leukemia (intraperitoneal) in B6D2F1 (BDF1) mice
Conditions: higher = longer survival
In short: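 Tumor was transplanted into mice, which were then dosed with test compound or vehicle alone. Survival was recorded for each group, and the treated figure was expressed relative to the control figure.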

[1] = endpoint: mean survival time, dose: 100.0 mg/kg/injection, schedule: Q01DX001 (ip), vehicle: saline
[2] = endpoint: mean survival time, dose: 200.0 mg/kg/injection, schedule: Q01DX001 (ip), vehicle: saline
[3] = endpoint: mean survival time, dose: 100.0 mg/kg/injection, schedule: Q04DX002 (ip), vehicle: Klucel (hydroxypropylcellulose) (HPC)
[4] = endpoint: mean survival time, dose: 200.0 mg/kg/injection, schedule: Q04DX002 (ip), vehicle: Klucel (hydroxypropylcellulose) (HPC)
[5] = endpoint: mean survival time, dose: 400.0 mg/kg/injection, schedule: Q04DX002 (ip), vehicle: Klucel (hydroxypropylcellulose) (HPC)
[6] = endpoint: mean survival time, dose: 100.0 mg/kg/injection, schedule: Q04DX003 (ip), vehicle: saline with Tween-80
[7] = endpoint: mean survival time, dose: 200.0 mg/kg/injection, schedule: Q04DX003 (ip), vehicle: saline with Tween-80
[8] = endpoint: mean survival time, dose: 400.0 mg/kg/injection, schedule: Q04DX003 (ip), vehicle: saline with Tween-80
[9] = endpoint: mean survival time, dose: 100.0 mg/kg/injection, schedule: Q04DX003 (ip), vehicle: saline
[10] = endpoint: mean survival time, dose: 50.0 mg/kg/injection, schedule: Q01DX001 (ip), vehicle: carboxymethylcellulose (CMC)
[11] = endpoint: mean survival time, dose: 100.0 mg/kg/injection, schedule: Q01DX001 (ip), vehicle: carboxymethylcellulose (CMC)
[12] = endpoint: mean survival time, dose: 200.0 mg/kg/injection, schedule: Q01DX001 (ip), vehicle: carboxymethylcellulose (CMC)
[13] = endpoint: mean survival time, dose: 400.0 mg/kg/injection, schedule: Q01DX001 (ip), vehicle: carboxymethylcellulose (CMC)
[14] = endpoint: mean survival time, dose: 100.0 mg/kg/injection, schedule: Q01DX009 (ip), vehicle: saline with Tween-80
[15] = endpoint: mean survival time, dose: 200.0 mg/kg/injection, schedule: Q01DX009 (ip), vehicle: saline with Tween-80

CCCCOCN(COCCCC)C(C)(C)C
T/C [1]: 93 % of control
T/C [2]: 98 % of control
T/C (endpoint: mean survival time, dose: 400.0 mg/kg/injection, schedule: Q01DX001 (ip), vehicle: saline): 117 % of control

O=C(O)c1cc(I)cc(Br)c1I
T/C [3]: 102 % of control
T/C [4]: 110 % of control
T/C [5]: 105 % of control

NC(N)=N/N=C/c1ccccc1Cl
T/C (endpoint: mean survival time, dose: 4.0 mg/kg/injection, schedule: Q01DX Z (ip), vehicle: saline): 97 % of control
T/C (endpoint: mean survival time, dose: 8.0 mg/kg/injection, schedule: Q01DX Z (ip), vehicle: saline): 97 % of control
T/C (endpoint: mean survival time, dose: 16.0 mg/kg/injection, schedule: Q01DX Z (ip), vehicle: saline): 102 % of control

CNC(=O)c1ccc[n+](CC(=O)Nc2ccc(Cl)cc2)c1
T/C (endpoint: mean survival time, dose: 100.0 mg/kg/injection, schedule: Q04DX003 (ip), vehicle: acetone): 110 % of control
T/C (endpoint: mean survival time, dose: 200.0 mg/kg/injection, schedule: Q04DX003 (ip), vehicle: acetone): 98 % of control

O=C(NCP(=O)(O)O)c1cccnc1
T/C (endpoint: mean survival time, dose: 100.0 mg/kg/injection, schedule: Q04DX003 (ip), vehicle: saline sonified): 94 % of control
T/C (endpoint: mean survival time, dose: 200.0 mg/kg/injection, schedule: Q04DX003 (ip), vehicle: saline sonified): 100 % of control
T/C (endpoint: mean survival time, dose: 400.0 mg/kg/injection, schedule: Q04DX003 (ip), vehicle: saline sonified): 102 % of control

CS(=O)(=O)OCCN(CCOS(C)(=O)=O)c1ccc(C=Nc2cccc(C(=O)O)c2)cc1
T/C (endpoint: mean survival time, dose: 2.5 mg/kg/injection, schedule: Q04DX003 (ip), vehicle: Klucel (hydroxypropylcellulose) (HPC)): 111 % of control
T/C (endpoint: mean survival time, dose: 5.0 mg/kg/injection, schedule: Q04DX003 (ip), vehicle: Klucel (hydroxypropylcellulose) (HPC)): 120 % of control
T/C (endpoint: mean survival time, dose: 80.0 mg/kg/injection, schedule: Q04DX003 (ip), vehicle: Klucel (hydroxypropylcellulose) (HPC)): 91 % of control

CCOC(=O)c1cnc(SC)nc1Nc1cc(Cl)cc(Cl)c1
T/C [6]: 89 % of control
T/C [7]: 87 % of control
T/C [8]: 91 % of control

N#Cc1ccc(OC(=O)c2ccc(N=C(N)N)cc2)cc1
T/C (endpoint: mean survival time, dose: 100.0 mg/kg/injection, schedule: Q01DX009 (ip), vehicle: saline): 94 % of control
T/C [9]: 96 % of control
T/C (endpoint: mean survival time, dose: 200.0 mg/kg/injection, schedule: Q01DX009 (ip), vehicle: saline): 91 % of control
T/C (endpoint: mean survival time, dose: 200.0 mg/kg/injection, schedule: Q04DX003 (ip), vehicle: saline): 93 % of control
T/C (endpoint: mean survival time, dose: 400.0 mg/kg/injection, schedule: Q04DX003 (ip), vehicle: saline): 88 % of control

CC(=O)c1ccc(S(=O)(=O)c2ccccc2)cc1
T/C [10]: 93 % of control
T/C [11]: 93 % of control
T/C [6]: 96 % of control
T/C [12]: 101 % of control
T/C [7]: 91 % of control
T/C [13]: 95 % of control
T/C [8]: 107 % of control

O=[N+]([O-])c1ccc2c(c1)OCO2
T/C [3]: 103 % of control
T/C [4]: 88 % of control
T/C [5]: 94 % of control

COC1=C(N)C(=O)C(OC)=C(N)C1=O
T/C [1]: 94 % of control
T/C [2]: 97 % of control

CCOC(=O)/C=C(\CC(=O)OCC)Nc1ccc(C(=O)c2ccccc2)cc1
T/C [2]: 89 % of control

COC(=O)C[CH2][Sn]([Br])([Br])[c]1ccccc1
T/C (endpoint: mean survival time, dose: 100.0 mg/kg/injection, schedule: Q04DX002 (ip), vehicle: saline with Tween-80): 95 % of control

FC1(F)SC2c3cccc4cccc(c34)C2C1(F)F (stereo unspecified)
T/C [14]: 102 % of control
T/C [15]: 104 % of control
T/C (endpoint: mean survival time, dose: 400.0 mg/kg/injection, schedule: Q01DX009 (ip), vehicle: saline with Tween-80): 96 % of control

CN1C(=O)CN(CCN2CC(=O)N(C)C2=S)C1=S
T/C [3]: 105 % of control
T/C [4]: 97 % of control
T/C [5]: 90 % of control

[Cl][Sn]([CH2]c1ccccc1)([CH2]c1ccccc1)[CH2]c1ccccc1
T/C (endpoint: mean survival time, dose: 0.39 mg/kg/injection, schedule: Q04DX002 (ip), vehicle: saline with Tween-80): 94 % of control
T/C (endpoint: mean survival time, dose: 0.78 mg/kg/injection, schedule: Q04DX002 (ip), vehicle: saline with Tween-80): 106 % of control
T/C (endpoint: mean survival time, dose: 1.56 mg/kg/injection, schedule: Q04DX002 (ip), vehicle: saline with Tween-80): 108 % of control
T/C (endpoint: mean survival time, dose: 3.13 mg/kg/injection, schedule: Q04DX002 (ip), vehicle: saline with Tween-80): 108 % of control

O=C(C#Cc1ccccc1)N1CCCCC1
T/C (endpoint: mean survival time, dose: 200.0 mg/kg/injection, schedule: Q04DX002 (ip), vehicle: saline with Tween-80): 98 % of control
T/C (endpoint: mean survival time, dose: 400.0 mg/kg/injection, schedule: Q04DX002 (ip), vehicle: saline with Tween-80): 101 % of control

NC(=O)NC(=O)C(Cl)c1ccccc1 (stereo unspecified)
T/C [10]: 103 % of control
T/C [11]: 97 % of control
T/C [12]: 103 % of control
T/C [13]: 101 % of control

Nc1ccc2c(c1)C(O)c1cc(Br)ccc1-2 (stereo unspecified)
T/C [11]: 108 % of control
T/C [12]: 100 % of control
T/C [13]: 105 % of control

C#CCC#Cc1ccccc1
T/C [14]: 89 % of control
T/C [15]: 92 % of control

Cc1cccc(C)c1NC(=S)N(C)C
T/C (endpoint: mean survival time, dose: 25.0 mg/kg/injection, schedule: Q01DX009 (ip), vehicle: saline): 101 % of control
T/C (endpoint: mean survival time, dose: 50.0 mg/kg/injection, schedule: Q01DX009 (ip), vehicle: saline): 103 % of control
T/C [9]: 95 % of control

CN(N=O)C(=O)NCc1c[nH]c(=O)[nH]c1=O
T/C (endpoint: mean survival time, dose: 6.0 mg/kg/injection, schedule: Q01DX Z (ip), vehicle: carboxymethylcellulose (CMC)): 106 % of control
T/C (endpoint: mean survival time, dose: 12.0 mg/kg/injection, schedule: Q01DX Z (ip), vehicle: carboxymethylcellulose (CMC)): 101 % of control
T/C (endpoint: mean survival time, dose: 25.0 mg/kg/injection, schedule: Q01DX Z (ip), vehicle: carboxymethylcellulose (CMC)): 100 % of control
T/C (endpoint: mean survival time, dose: 50.0 mg/kg/injection, schedule: Q01DX Z (ip), vehicle: carboxymethylcellulose (CMC)): 121 % of control

C[n+]1c2ccccc2c(Nc2ccc(NS(=O)(=O)CCCCN=C(N)N)cc2)c2ccc(N)cc21
T/C (endpoint: mean survival time, dose: 0.5 mg/kg/injection, schedule: Q03HX008 (ip), vehicle: water): 167 % of control
T/C (endpoint: mean survival time, dose: 1.5 mg/kg/injection, schedule: Q01DX009 (ip), vehicle: water): 186 % of control
T/C (endpoint: mean survival time, dose: 2.0 mg/kg/injection, schedule: Q03HX008 (ip), vehicle: water): 160 % of control
T/C (endpoint: mean survival time, dose: 3.0 mg/kg/injection, schedule: Q01DX009 (ip), vehicle: water): 160 % of control and 212 % of control
T/C (endpoint: mean survival time, dose: 3.0 mg/kg/injection, schedule: Q03HX008 (ip), vehicle: water): 240 % of control
T/C (endpoint: mean survival time, dose: 3.12 mg/kg/injection, schedule: Q04DX003 (ip), vehicle: water): 191 % of control
T/C (endpoint: mean survival time, dose: 6.0 mg/kg/injection, schedule: Q01DX009 (ip), vehicle: water): 176 % of control and 218 % of control
T/C (endpoint: mean survival time, dose: 6.0 mg/kg/injection, schedule: Q03HX008 (ip), vehicle: water): 327 % of control
T/C (endpoint: mean survival time, dose: 6.25 mg/kg/injection, schedule: Q04DX003 (ip), vehicle: water): 152 % of control and 170 % of control
T/C (endpoint: mean survival time, dose: 12.0 mg/kg/injection, schedule: Q01DX009 (ip), vehicle: water): 269 % of control
T/C (endpoint: mean survival time, dose: 12.5 mg/kg/injection, schedule: Q01DX001 (ip), vehicle: water): 186 % of control
T/C (endpoint: mean survival time, dose: 12.5 mg/kg/injection, schedule: Q04DX003 (ip), vehicle: water): 171 % of control and 202 % of control
T/C (endpoint: mean survival time, dose: 25.0 mg/kg/injection, schedule: Q01DX001 (ip), vehicle: water): 207 % of control
T/C (endpoint: mean survival time, dose: 25.0 mg/kg/injection, schedule: Q04DX003 (ip), vehicle: water): 194 % of control and 225 % of control
T/C (endpoint: median survival time, dose: 3.0 mg/kg/injection, schedule: Q01DX009 (oral), vehicle: water): 97 % of control
T/C (endpoint: median survival time, dose: 6.0 mg/kg/injection, schedule: Q01DX009 (oral), vehicle: water): 103 % of control
T/C (endpoint: median survival time, dose: 6.0 mg/kg/injection, schedule: Q01DX009 (sc), vehicle: water): 166 % of control
T/C (endpoint: median survival time, dose: 12.0 mg/kg/injection, schedule: Q01DX009 (oral), vehicle: water): 98 % of control
T/C (endpoint: median survival time, dose: 12.0 mg/kg/injection, schedule: Q01DX009 (sc), vehicle: water): 163 % of control
T/C (endpoint: median survival time, dose: 24.0 mg/kg/injection, schedule: Q01DX009 (oral), vehicle: water): 94 % of control
T/C (endpoint: median survival time, dose: 48.0 mg/kg/injection, schedule: Q01DX009 (oral), vehicle: water): 95 % of control

Cc1ccc(NCN2C(=O)NC(c3ccccc3)(c3ccccc3)C2=O)cc1
T/C (endpoint: mean survival time, dose: 100.0 mg/kg/injection, schedule: Q01DX001 (ip), vehicle: Klucel (hydroxypropylcellulose) (HPC)): 93 % of control
T/C (endpoint: mean survival time, dose: 200.0 mg/kg/injection, schedule: Q01DX001 (ip), vehicle: Klucel (hydroxypropylcellulose) (HPC)): 103 % of control
T/C (endpoint: mean survival time, dose: 400.0 mg/kg/injection, schedule: Q01DX001 (ip), vehicle: Klucel (hydroxypropylcellulose) (HPC)): 92 % of control
